Measurements from patent US11566007B2, “Ras inhibitors” (Revolution Medicines, Inc., priority 2019, dated 2023).

Legend:
KRAS G12D = KRAS G12D (Homo sapiens (Human), UniProt P01116+P62937, G12D); experiment: Ras-Raf (BRAF RBD) disruption / FRET / MOA assay, KRAS G12D; format: biochemical; details: Ras-Raf disruption/FRET/MOA assay; class symbols; read-out: KRAS G12D FRET data IC50
Method in brief: (§1)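 Compounds, top final concentration 30 μM in 10-point 3-fold series, incubated 3 hours at 25° C with nucleotide-loaded Ras, cyclophilin A and BRAF RBD.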

NRAS Q61K = NRAS Q61K (Homo sapiens (Human), UniProt P01111+P62937, Q61K); experiment: Ras-Raf (BRAF RBD) disruption / FRET / MOA assay, NRAS Q61K; format: biochemical; details: NRAS Q61K; Ras-Raf disruption/FRET/MOA assay; read-out: IC50* NRAS Q61K FRET data
Method in brief: (§2)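 TR-FRET disruption of nucleotide-loaded Ras binding to BRAF RBD via compound-driven ternary complex with cyclophilin A. Compound as 10-point 3-fold series from 30 μM final, 3 h at 25° C, then anti-His Eu-W1024 (10 nM) and anti-GST allophycocyanin (50 nM) for 1.5 h. IC50 from decreased FRET ratio versus DMSO.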

K-Ras G12C = K-Ras G12C (Homo sapiens (Human), UniProt P01116+P62937, G12C); experiment: Ras-Raf (BRAF RBD) disruption / FRET / MOA assay, KRAS G12C; format: biochemical; details: KRAS G12C; Ras-Raf disruption/FRET/MOA assay; read-out: IC50* KRAS G12C FRET data
Method in brief: as §1

NRAS Q61R = NRAS Q61R (Homo sapiens (Human), UniProt P01111+P62937, Q61R); experiment: Ras-Raf (BRAF RBD) disruption / FRET / MOA assay, NRAS Q61R; format: biochemical; details: NRAS Q61R; Ras-Raf disruption/FRET/MOA assay; read-out: IC50* NRAS Q61R FRET data
Method in brief: as §2

KRAS G12S = KRAS G12S (Homo sapiens (Human), UniProt P01116+P62937, G12S); experiment: Ras-Raf (BRAF RBD) disruption / FRET / MOA assay, KRAS G12S; format: biochemical; details: Ras-Raf disruption/FRET/MOA assay; class symbols; read-out: KRAS G12S FRET data IC50
Method in brief: as §1

NCI-H358 (K-Ras G12C) = experiment: CellTiter-Glo cell viability assay, NCI-H358; format: cell-based, human; details: Homo sapiens, NCI-H358, 120 h, NCI-H358, 5-day treatment; class symbols; read-out: Additional H358 Cell Viability assay data (K-Ras G12C, IC50)
Method in brief: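 Compounds were dispensed directly onto K-Ras mutant cells and incubated until day 5, then plates were equilibrated to room temperature for about 30 minutes before CellTiter-Glo luminescence. Signals were normalized as (sample/average DMSO)*100 and fitted by four-parameter logistic fit.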

KRAS WT = KRAS WT (Homo sapiens (Human), UniProt P01116+P62937); experiment: Ras-Raf (BRAF RBD) disruption / FRET / MOA assay, KRAS WT; format: biochemical; details: read-out: IC50* KRAS WT FRET data
Method in brief: as §1

Sequence of KRAS WT (P01116-2 other isoform, or with tags, fused parts or gaps): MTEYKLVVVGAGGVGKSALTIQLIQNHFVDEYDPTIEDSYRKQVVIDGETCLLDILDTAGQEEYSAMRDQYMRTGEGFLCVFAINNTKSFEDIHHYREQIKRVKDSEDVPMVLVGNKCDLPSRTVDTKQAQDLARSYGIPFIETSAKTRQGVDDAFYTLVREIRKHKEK
Sequence of KRAS WT (P62937 whole entry): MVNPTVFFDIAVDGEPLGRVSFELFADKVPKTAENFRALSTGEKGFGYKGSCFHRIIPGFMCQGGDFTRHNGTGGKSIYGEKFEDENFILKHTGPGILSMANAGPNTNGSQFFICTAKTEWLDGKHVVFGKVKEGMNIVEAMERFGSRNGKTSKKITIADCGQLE
Sequence of NRAS Q61K (P01111 whole entry Q61K): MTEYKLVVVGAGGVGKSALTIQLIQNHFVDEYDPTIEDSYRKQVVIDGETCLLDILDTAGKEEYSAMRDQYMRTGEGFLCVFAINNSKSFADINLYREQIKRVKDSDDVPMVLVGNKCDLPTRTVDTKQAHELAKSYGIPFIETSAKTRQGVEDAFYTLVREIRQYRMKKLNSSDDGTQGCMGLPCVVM
Sequence of NRAS Q61K (P62937 whole entry): as the sequence (P62937 whole entry) above
Sequence of NRAS Q61R (P01111 whole entry Q61R): as the sequence (P01111 whole entry Q61K) above, with K61R counted along it
Sequence of NRAS Q61R (P62937 whole entry): as the sequence (P62937 whole entry) above
Sequence of KRAS G12S (P01116-2 other isoform, or with tags, fused parts or gaps G12S): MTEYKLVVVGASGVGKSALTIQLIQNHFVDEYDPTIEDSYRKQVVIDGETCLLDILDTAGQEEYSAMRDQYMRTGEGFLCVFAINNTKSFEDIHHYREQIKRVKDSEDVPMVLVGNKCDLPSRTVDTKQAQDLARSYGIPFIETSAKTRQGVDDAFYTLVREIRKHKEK
Sequence of KRAS G12S (P62937 whole entry): as the sequence (P62937 whole entry) above
Sequence of K-Ras G12C (P01116-2 other isoform, or with tags, fused parts or gaps G12C): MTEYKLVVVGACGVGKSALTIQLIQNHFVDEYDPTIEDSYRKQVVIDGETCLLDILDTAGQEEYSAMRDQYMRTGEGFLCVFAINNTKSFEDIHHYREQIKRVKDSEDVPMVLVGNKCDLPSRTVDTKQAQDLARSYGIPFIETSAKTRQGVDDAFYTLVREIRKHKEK
Sequence of K-Ras G12C (P62937 whole entry): as the sequence (P62937 whole entry) above
Sequence of KRAS G12D (P01116-2 other isoform, or with tags, fused parts or gaps G12D): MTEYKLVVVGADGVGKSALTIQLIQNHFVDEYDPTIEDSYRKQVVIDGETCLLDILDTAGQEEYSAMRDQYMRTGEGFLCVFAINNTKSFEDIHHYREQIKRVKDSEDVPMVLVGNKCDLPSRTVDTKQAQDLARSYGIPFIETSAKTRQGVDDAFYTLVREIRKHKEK
Sequence of KRAS G12D (P62937 whole entry): as the sequence (P62937 whole entry) above

SMILES | IC50 (KRAS G12D) [µM] | IC50 (NRAS Q61K) [µM] | IC50 (K-Ras G12C) [µM] | IC50 (NRAS Q61R) [µM] | IC50 (KRAS G12S) [µM] | IC50 (NCI-H358 (K-Ras G12C)) [µM] | IC50 (KRAS WT) [µM]
C=CC(=O)Nc1cnc(OC[C@H](C(=O)N[C@H]2Cc3cccc(c3)-c3ccc4c(c3)c(c(-c3cccnc3[C@H](C)OC)n4CC)CC(C)(C)COC(=O)[C@@H]3CCCN(N3)C2=O)C(C)C)n1C (atropisomer, axis not shown) [Example A600] | 1 to 10 | 1 to 10 | < 0.01 | 1 to 10 | 1 to 10 | < 0.01 | 0.1 to 1
C=CC(=O)N1CCOC2(C1)CN(C(=O)N(C)[C@H](C(=O)N[C@H]1Cc3nc(cs3)-c3ccc4c(c3)c(c(-c3cccnc3[C@H](C)OC)n4CC(F)(F)F)CC(C)(C)COC(=O)[C@@H]3CCCN(N3)C1=O)C(C)C)C2 (atropisomer, axis not shown) [Example A604] | 1 to 10 | 0.1 to 1 | 0.1 to 1 | 0.1 to 1 | 0.1 to 1 | < 0.01 | 0.1 to 1
C=CC(=O)N1CCOC2(CCN(C(=O)N(C)[C@H](C(=O)N[C@H]3Cc4cc(CF)cc(c4)-c4ccc5c(c4)c(c(-c4cccnc4[C@H](C)OC)n5CC(F)(F)F)CC(C)(C)COC(=O)[C@@H]4CCCN(N4)C3=O)C(C)C)CC2)C1 (atropisomer, axis not shown) [Example A605] | 0.1 to 1 | 0.1 to 1 | 0.1 to 1 | 0.1 to 1 | 0.1 to 1 | 0.01 to 0.1 | 0.01 to 0.1
C=CC(=O)N1CCOC2(CCN(C(=O)N(C)[C@H](C(=O)N[C@H]3Cc4cccc(c4)-c4ccc5c(c4)c(c(-c4cccnc4[C@H](C)OC)n5CC(F)(F)F)CC(C)(C)COC(=O)[C@@H]4CCCN(N4)C3=O)C(C)C)CC2)C1 (atropisomer, axis not shown) [Example A608] | 0.1 to 1 | 0.1 to 1 | 0.1 to 1 | 0.1 to 1 | 0.1 to 1 | 0.01 to 0.1 | 0.1 to 1
C=CC(=O)N1CCC[C@@H]2CN(C(=O)N(C)[C@H](C(=O)N[C@H]3Cc4nc(cs4)-c4ccc5c(c4)c(c(-c4cccnc4[C@H](C)OC)n5CC)CC(C)(C)COC(=O)[C@@H]4CCCN(N4)C3=O)C(C)C)C[C@@H]21 (atropisomer, axis not shown) [Example A619] | 1 to 10 | 0.1 to 1 | 0.1 to 1 | 0.1 to 1 | 1 to 10 | 0.01 to 0.1 | 1 to 10
CCn1c(-c2cccnc2[C@H](C)OC)c2c3cc(ccc31)-c1csc(n1)C[C@H](NC(=O)[C@H](C(C)C)N(C)C(=O)N1CCC3(CC1)CN(C(=O)/C=C/CF)C3)C(=O)N1CCC[C@H](N1)C(=O)OCC(C)(C)C2 (atropisomer, axis not shown) [Example A622] | 0.1 to 1 | 0.01 to 0.1 | 0.01 to 0.1 | 0.1 to 1 | 0.1 to 1 | 0.01 to 0.1 | 0.1 to 1
CCn1c(-c2cccnc2[C@H](C)OC)c2c3cc(ccc31)-c1csc(n1)C[C@H](NC(=O)[C@@H](F)COC1CN(C(=O)C#CC(C)(C)N(C)C)C1)C(=O)N1CCC[C@H](N1)C(=O)OCC(C)(C)C2 (atropisomer, axis not shown) [Example A626] | 1 to 10 | 1 to 10 | < 0.01 | 1 to 10 | 1 to 10 | 0.01 to 0.1 | 1 to 10
CO[C@@H](C)c1ncccc1-c1c2c3cc(ccc3n1CC(F)(F)F)N1CCO[C@@H](C[C@H](NC(=O)[C@H](C(C)C)N3CC[C@@]4(CCN(C(=O)C#CC(C)(C)N(C)C)C4)C3=O)C(=O)N3CCC[C@H](N3)C(=O)OCC(C)(C)C2)C1 (atropisomer, axis not shown) [Example A628] | > 10 | > 10 | < 0.01 | > 10 | 1 to 10 | 0.01 to 0.1 | > 10
C=CC(=O)N(C)CCN1CCN(C(=O)N(C)[C@H](C(=O)N[C@H]2Cc3nc(cs3)-c3ccc4c(c3)c(c(-c3cccnc3[C@H](C)OC)n4CC)CC(C)(C)COC(=O)[C@@H]3CCCN(N3)C2=O)C(C)C)CC1 (atropisomer, axis not shown) [Example A630] | 1 to 10 | 0.1 to 1 | 0.1 to 1 | 0.1 to 1 | 0.1 to 1 | 0.01 to 0.1 | 0.1 to 1
C=CC(=O)N(C)[C@H]1CN(C(=O)N(C)[C@H](C(=O)N[C@H]2Cc3nc(cs3)-c3ccc4c(c3)c(c(-c3cccnc3[C@H](C)OC)n4CC)CC(C)(C)COC(=O)[C@@H]3CCCN(N3)C2=O)C(C)C)C[C@H]1F (atropisomer, axis not shown) [Example A631] | 1 to 10 | 0.01 to 0.1 | 0.1 to 1 | 0.1 to 1 | 0.1 to 1 | < 0.01 | 0.1 to 1
C=CC(=O)N1CC[C@H](C(=O)N(C)[C@@H](CC(F)(F)F)C(=O)N[C@H]2Cc3cccc(c3)-c3ccc4c(c3)c(c(-c3cccnc3[C@H](C)OC)n4CC)CC(C)(C)COC(=O)[C@@H]3CCCN(N3)C2=O)C1 (atropisomer, axis not shown) [Example A639] | > 10 | 1 to 10 | 0.1 to 1 | 1 to 10 | 1 to 10 | 0.1 to 1 | 1 to 10
CCn1c(-c2cccnc2[C@H](C)OC)c2c3cc(ccc31)N1CCO[C@@H](C[C@H](NC(=O)[C@@H](COC3CCN(C(=O)C#CC(C)(C)N(C)C)CC3)C(C)C)C(=O)N3CCC[C@H](N3)C(=O)OCC(C)(C)C2)C1 (atropisomer, axis not shown) [Example A643, (2R)-2-(((1-(4-(dimethylamino)-4-methylpent-2-ynoyl)piperidin-4-yl)oxy)methyl)-N-((2^2S,6^3S,4S)-1^1-ethyl-1^2-(2-((S)-1-methoxyethyl)pyridin-3-yl)-10,10-dimethyl-5,7-dioxo-6^1,6^2,6^3,6^4,6^5,6^6-hexahydro-1^1H-8-oxa-2(4,2)-morpholina-1(5,3)-indola-6(1,3)-pyridazinacycloundecaphane-4-yl)-3-methylbutanamide] | > 10 | > 10 | 0.01 to 0.1 | > 10 | > 10 | < 0.01 | > 10
CCn1c(-c2cccnc2[C@H](C)OC)c2c3cc(ccc31)-c1cccc(c1)C[C@H](NC(=O)[C@@H](COC1CN(C(=O)C#C[C@H]3COCCN3C)C1)C(C)C)C(=O)N1CCC[C@H](N1)C(=O)OCC(C)(C)C2 (atropisomer, axis not shown) [Example A644] | > 10 | > 10 | 0.01 to 0.1 | > 10 | > 10 | < 0.01 | > 10
CCn1c(-c2cccnc2[C@H](C)OC)c2c3cc(ccc31)-c1cccc(c1)C[C@H](NC(=O)[C@@H](COC1CN(C(=O)C#C[C@@H]3OCCCN3C)C1)C(C)C)C(=O)N1CCC[C@H](N1)C(=O)OCC(C)(C)C2 (atropisomer, axis not shown) [Example A648] | > 10 | > 10 | 0.1 to 1 | > 10 | > 10 | 0.01 to 0.1 | 1 to 10
CCn1c(-c2cccnc2[C@H](C)OC)c2c3cc(ccc31)-c1cnc(o1)C[C@H](NC(=O)[C@@H](COC1CN(C(=O)C#CC(C)(C)N(C)C)C1)C(C)C)C(=O)N1CCC[C@H](N1)C(=O)OCC(C)(C)C2 (atropisomer, axis not shown) [Example A649] | > 10 | > 10 | 0.01 to 0.1 | > 10 | > 10 | 0.01 to 0.1 | > 10
CCn1c(-c2cccnc2[C@H](C)OC)c2c3cc(ccc31)-c1csc(n1)C[C@H](NC(=O)[C@H](C(C)C)N(C)C(=O)N1CCC3(CC1)CN(C(=O)/C=C/CN(C)C)C3)C(=O)N1CCC[C@H](N1)C(=O)OCC(C)(C)C2 (atropisomer, axis not shown) [Example A650] | 0.1 to 1 | 0.01 to 0.1 | 0.01 to 0.1 | 0.1 to 1 | 0.1 to 1 | 0.01 to 0.1 | 0.1 to 1
CCn1c(-c2cccnc2[C@H](C)OC)c2c3cc(ccc31)-c1csc(n1)C[C@H](NC(=O)[C@H](C(C)C)N(C)C(=O)N1CCC13CN(C(=O)C#CC(C)(C)N(C)C)C3)C(=O)N1CCC[C@H](N1)C(=O)OCC(C)(C)C2 (atropisomer, axis not shown) [Example A656] | 1 to 10 | 0.1 to 1 | 0.1 to 1 | 0.1 to 1 | 0.1 to 1 | 0.01 to 0.1 | 0.1 to 1
